We go through 23 molecules from patent US20160289186A1, “FLUOROMETHYL-SUBSTITUTED PYRROLE CA[…]” (Grunenthal GmbH, priority 2013, published 2016).

This assay deals with T1, Human CaV2.2 channels (Homo sapiens, UniProt Q00975).
T1 construct: expressed in transfected cells; host or cells: HEK293
T1 sequence (Q00975 whole entry): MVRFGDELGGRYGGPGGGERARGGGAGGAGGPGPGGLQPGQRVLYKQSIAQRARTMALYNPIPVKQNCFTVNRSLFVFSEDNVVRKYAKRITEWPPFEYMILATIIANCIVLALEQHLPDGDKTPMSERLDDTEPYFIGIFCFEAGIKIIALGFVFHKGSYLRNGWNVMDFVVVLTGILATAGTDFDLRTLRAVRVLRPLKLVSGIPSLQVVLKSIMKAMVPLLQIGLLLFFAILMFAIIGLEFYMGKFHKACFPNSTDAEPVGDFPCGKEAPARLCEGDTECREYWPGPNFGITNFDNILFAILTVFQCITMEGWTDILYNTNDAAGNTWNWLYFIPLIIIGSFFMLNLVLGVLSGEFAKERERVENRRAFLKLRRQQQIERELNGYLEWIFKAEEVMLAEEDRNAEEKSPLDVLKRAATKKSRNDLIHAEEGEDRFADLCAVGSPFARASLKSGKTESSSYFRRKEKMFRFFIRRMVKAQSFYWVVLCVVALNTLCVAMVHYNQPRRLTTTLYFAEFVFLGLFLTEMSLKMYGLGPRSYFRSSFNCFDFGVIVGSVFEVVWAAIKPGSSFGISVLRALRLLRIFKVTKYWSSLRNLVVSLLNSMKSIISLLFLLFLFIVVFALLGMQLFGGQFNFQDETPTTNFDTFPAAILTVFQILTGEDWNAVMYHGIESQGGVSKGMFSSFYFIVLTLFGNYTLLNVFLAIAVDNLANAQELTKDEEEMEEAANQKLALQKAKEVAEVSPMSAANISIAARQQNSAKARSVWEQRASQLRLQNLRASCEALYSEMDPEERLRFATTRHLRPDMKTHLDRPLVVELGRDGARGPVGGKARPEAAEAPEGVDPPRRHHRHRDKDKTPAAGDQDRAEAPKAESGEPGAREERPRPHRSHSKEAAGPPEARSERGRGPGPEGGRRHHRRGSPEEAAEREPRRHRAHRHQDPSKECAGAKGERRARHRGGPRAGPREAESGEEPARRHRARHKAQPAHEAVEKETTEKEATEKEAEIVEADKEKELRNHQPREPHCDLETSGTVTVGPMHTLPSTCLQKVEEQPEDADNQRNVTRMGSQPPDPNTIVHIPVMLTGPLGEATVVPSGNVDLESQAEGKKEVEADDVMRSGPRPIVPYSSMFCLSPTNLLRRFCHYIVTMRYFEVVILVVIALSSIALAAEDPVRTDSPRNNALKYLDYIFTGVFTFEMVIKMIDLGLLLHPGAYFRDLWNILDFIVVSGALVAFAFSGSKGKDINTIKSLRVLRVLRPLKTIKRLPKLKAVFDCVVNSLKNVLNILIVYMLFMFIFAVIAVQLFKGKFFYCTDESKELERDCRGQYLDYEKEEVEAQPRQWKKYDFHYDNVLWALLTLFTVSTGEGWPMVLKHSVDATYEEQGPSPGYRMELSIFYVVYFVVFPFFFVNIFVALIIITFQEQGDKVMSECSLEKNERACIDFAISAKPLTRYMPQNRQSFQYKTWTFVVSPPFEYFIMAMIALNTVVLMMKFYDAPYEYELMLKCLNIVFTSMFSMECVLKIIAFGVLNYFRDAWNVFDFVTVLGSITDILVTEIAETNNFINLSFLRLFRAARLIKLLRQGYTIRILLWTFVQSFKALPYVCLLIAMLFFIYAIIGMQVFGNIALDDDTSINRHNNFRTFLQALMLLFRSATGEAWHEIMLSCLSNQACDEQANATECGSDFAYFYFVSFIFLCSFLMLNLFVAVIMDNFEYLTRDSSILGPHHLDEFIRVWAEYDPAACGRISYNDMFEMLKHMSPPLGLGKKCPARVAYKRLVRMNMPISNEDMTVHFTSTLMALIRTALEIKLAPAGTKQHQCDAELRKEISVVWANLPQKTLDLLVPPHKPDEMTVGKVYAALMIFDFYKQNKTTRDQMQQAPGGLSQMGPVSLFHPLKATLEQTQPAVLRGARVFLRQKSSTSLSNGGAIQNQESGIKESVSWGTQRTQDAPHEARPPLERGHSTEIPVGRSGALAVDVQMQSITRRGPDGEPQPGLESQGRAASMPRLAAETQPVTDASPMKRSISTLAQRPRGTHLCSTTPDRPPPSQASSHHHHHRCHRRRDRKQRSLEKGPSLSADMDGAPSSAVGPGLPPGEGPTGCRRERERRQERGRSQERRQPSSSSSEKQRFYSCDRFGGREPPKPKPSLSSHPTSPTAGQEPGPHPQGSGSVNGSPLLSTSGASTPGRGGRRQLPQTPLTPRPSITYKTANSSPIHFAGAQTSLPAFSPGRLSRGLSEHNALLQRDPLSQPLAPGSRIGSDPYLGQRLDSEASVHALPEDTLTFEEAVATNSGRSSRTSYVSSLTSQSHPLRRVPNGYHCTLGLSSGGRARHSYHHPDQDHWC
T1 sequence (P54284 whole entry, further chain): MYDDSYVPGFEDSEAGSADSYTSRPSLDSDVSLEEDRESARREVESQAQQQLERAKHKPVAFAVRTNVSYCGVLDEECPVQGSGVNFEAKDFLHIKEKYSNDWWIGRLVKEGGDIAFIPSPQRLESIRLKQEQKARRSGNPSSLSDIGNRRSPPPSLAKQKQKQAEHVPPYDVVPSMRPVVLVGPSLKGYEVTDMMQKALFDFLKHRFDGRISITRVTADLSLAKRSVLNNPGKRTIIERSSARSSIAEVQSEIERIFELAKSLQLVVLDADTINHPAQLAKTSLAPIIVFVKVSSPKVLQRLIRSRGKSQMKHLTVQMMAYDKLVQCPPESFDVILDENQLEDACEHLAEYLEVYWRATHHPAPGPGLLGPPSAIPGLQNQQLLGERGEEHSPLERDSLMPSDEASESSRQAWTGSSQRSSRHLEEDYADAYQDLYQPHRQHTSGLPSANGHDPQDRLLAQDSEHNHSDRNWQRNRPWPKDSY
T1 sequence (P54289 25-1103, further chain): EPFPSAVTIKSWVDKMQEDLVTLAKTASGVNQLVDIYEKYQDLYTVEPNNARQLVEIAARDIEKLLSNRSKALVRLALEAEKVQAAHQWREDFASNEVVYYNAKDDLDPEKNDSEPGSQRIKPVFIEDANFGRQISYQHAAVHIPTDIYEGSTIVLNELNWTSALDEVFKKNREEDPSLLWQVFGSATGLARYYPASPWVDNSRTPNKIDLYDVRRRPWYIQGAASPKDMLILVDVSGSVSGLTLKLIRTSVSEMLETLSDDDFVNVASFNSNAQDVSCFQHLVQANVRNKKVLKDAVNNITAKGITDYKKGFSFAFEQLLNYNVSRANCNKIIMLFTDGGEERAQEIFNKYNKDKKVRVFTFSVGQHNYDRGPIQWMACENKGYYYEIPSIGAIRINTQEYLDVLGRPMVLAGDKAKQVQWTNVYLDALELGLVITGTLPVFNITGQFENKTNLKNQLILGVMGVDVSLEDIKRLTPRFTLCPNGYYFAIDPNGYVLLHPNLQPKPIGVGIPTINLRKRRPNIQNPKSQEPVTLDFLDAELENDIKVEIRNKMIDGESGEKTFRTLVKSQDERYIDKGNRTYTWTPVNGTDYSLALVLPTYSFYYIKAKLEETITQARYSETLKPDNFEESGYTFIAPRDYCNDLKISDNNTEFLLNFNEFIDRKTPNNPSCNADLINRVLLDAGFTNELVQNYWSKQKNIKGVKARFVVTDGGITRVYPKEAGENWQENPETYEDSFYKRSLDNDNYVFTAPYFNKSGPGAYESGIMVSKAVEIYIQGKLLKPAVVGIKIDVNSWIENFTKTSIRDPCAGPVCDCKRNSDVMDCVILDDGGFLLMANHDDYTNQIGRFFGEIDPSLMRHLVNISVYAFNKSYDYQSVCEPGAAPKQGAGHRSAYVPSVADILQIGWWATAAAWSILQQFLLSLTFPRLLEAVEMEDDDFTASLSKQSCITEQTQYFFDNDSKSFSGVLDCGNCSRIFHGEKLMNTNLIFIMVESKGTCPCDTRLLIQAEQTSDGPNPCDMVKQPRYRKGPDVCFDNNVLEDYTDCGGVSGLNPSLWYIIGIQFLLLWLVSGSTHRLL
Nature of the assay: Fluorescent (FLIPR) assay for CaV2.2 channels using potassium depolarization to induce channel opening. The class given is cell-based. The settings on record: 3 μM compound; 30 mM KCl assay buffer (inactivated channel state); HEK293 cells stably expressing human CaV2.2; read-out: Activity Category: %-Inhib (CaV2.2) @3 μM @30 mM KCl. From the text:
In the process, the Ca^2+ influx is quantified in the FLIPR assay with the aid of a Ca^2+-sensitive dye (type Fluo-4, Molecular Probes Europe BV, Leiden, the Netherlands) in a fluorescent imaging plate reader (FLIPR 3, Molecular Devices, Sunnyvale, USA), as described hereinafter.
Human CaV2.2 channels were stably expressed in HEK293 cells together with alpha2-delta and beta subunits of voltage gated calcium channels. In addition, an inwardly rectifying potassium channel (Kir2.3) was stably expressed in these cells to augment control of the cell membrane potential by the concentration of extracellular potassium ions. Raise of the extracellular potassium concentration leads to depolarization of the membrane potential and thus regulates the voltage dependent state of CaV2.2 channels. For preparation, cells were seeded in black poly-D-lysine coated 96-well plates (Becton Dickinson, Biocoat 4640) in 100 μL medium [500 mL DMEM/F-12 plus Glutamax (Invitrogen 31331-093) plus 5.5 mL MEM NEAA 100× (Invitrogen 11140-035) plus 50 mL FBS decomplemented (Invitrogen 10270-106) plus 200 μg/mL Geneticin (Invitrogen 10131-027) plus 50 μg/mL Hygromycin B (Invitrogen 10687-010) plus 2 μg/mL Blasticidin (anti-bl5b Invivo-Gen) plus 0.2 μg/mL Puromycin (A 11138-03)] at a cell density of 30.000 cells per well. Plates were incubated at 37° C. (5% CO2) for 20 to 23 h. On the day of experiment medium was discarded and cells were loaded with Fluo 4 by addition of 100 μL of basic assay buffer (10 mM HEPES, 1 mM KCl, 149 mM NaCl, 0.8 mM CaCl2, 1.7 mM MgCl2, 10 mM Glucose, 0.1% BSA. pH 7.4) containing 2 μM Fluo 4 (Molecular Probes; F-14201), 0.01% pluronic acid (Molecular Probes; P-6866) and 2.5 mM probenecid (Molecular Probes; P36400). Cells were incubated in the dark at 25° C. for 60 min. Then dye containing buffer was discarded and 100 μL basic (1 mM KCl) or alternative (30 mM KCl) assay buffer was added. The alternative assay buffer contained altered concentrations of KCl (30 mM) and NaCl (120 mM) and was used in order to promote the inactivated channel state. After that 25 μL of basic or alternative assay buffer with or without test compound were added and cells were incubated again in the dark at 25° C. for 15 min. Fluorescence intensity was measured on a FLIPR 3 instrument (Molecular Devices Corp., Sunnyvale, Calif.) with excitation at 480 nm and emission at 535 nm. After continuously reading fluorescence for 30 sec, 50 μL of basic assay buffer containing 210 mM KCl (NaCl omitted) were added for depolarization. Peak fluorescent signal intensity was determined and the amplitude of the peak signal, normalized to base line, was used to measure channel inhibition by test compounds.
Regarding `Cc1cnc(CN(C)C(=O)c2c(-c3ccc(Cl)cc3F)c(C)c(C(F)(F)F)n2C2CC2)cn1` [Example 024, 3-(4-Chloro-2-fluoro-phenyl)-1-cyclopropyl-N,4-dimethyl-N-[(5-methyl-pyrazin-2-yl)-methyl]-5-(trifluoromethyl)-1H-pyrrole-2-carboxylic acid amide], the inhibition at 3 µM is greater than 95%. The value for `Cc1c(-c2ccc(Cl)cc2)c(C(=O)N2CC(O)C2)n(C2CC2)c1C(F)(F)F` [Example 025, [3-(4-Chlorophenyl)-1-cyclopropyl-4-methyl-5-(trifluoromethyl)-1H-pyrrol-2-yl]-(3-hydroxy-azetidin-1-yl)-methanone] was 75 to 95%; that for `O=C(c1c(-c2ccc(Cl)cc2)cc(C(F)(F)F)n1C1CC1)N1CC(O)C1` [Example 026, [3-(4-Chlorophenyl)-1-cyclopropyl-5-(trifluoromethyl)-1H-pyrrol-2-yl]-(3-hydroxy-azetidin-1-yl)-methanone] was 40 to 75%.

Take `Cc1noc(C2CCN(C(=O)c3c(-c4ccc(Cl)cc4)c(C)c(C(F)(F)F)n3C3CC3)CC2)n1` [Example 027, [3-(4-Chlorophenyl)-1-cyclopropyl-4-methyl-5-(trifluoromethyl)-1H-pyrrol-2-yl]-[4-(3-methyl-[1,2,4]oxadiazol-5-yl)-piperidin-1-yl]-methanone]: the inhibition at 3 µM lay in the range of 75 to 95%. As for `Cc1noc(C2CCN(C(=O)c3c(-c4ccc(Cl)cc4F)c(C)c(C(F)(F)F)n3C3CC3)CC2)n1` [Example 028, [3-(4-Chloro-2-fluoro-phenyl)-1-cyclopropyl-4-methyl-5-(trifluoromethyl)-1H-pyrrol-2-yl]-[4-(3-methyl-[1,2,4]oxadiazol-5-yl)-piperidin-1-yl]-methanone], the figure is 75 to 95%; as for `Cc1noc(C2CCN(C(=O)c3c(-c4ccc(Cl)cc4)cc(C(F)(F)F)n3C3CC3)CC2)n1` [Example 029, [3-(4-Chlorophenyl)-1-cyclopropyl-5-(trifluoromethyl)-1H-pyrrol-2-yl]-[4-(3-methyl-[1,2,4]oxadiazol-5-yl)-piperidin-1-yl]-methanone], 75 to 95%; as for `Cc1c(-c2ccc(Cl)cc2)c(C(=O)N2CCOC(C)(C)C2)n(C2CC2)c1C(F)(F)F` [Example 032, [3-(4-Chlorophenyl)-1-cyclopropyl-4-methyl-5-(trifluoromethyl)-1H-pyrrol-2-yl]-(2,2-dimethyl-morpholin-4-yl)-methanone], greater than 95%. Take `Cc1c(-c2ccc(Cl)cc2F)c(C(=O)N2CCOC(C)(C)C2)n(C2CC2)c1C(F)(F)F` [Example 033, [3-(4-Chloro-2-fluoro-phenyl)-1-cyclopropyl-4-methyl-5-(trifluoromethyl)-1H-pyrrol-2-yl]-(2,2-dimethyl-morpholin-4-yl)-methanone]: the inhibition at 3 µM lay in the range of 75 to 95%. The value for `CC1(C)CN(C(=O)c2c(-c3ccc(Cl)cc3)cc(C(F)(F)F)n2C2CC2)CCO1` [Example 034, [3-(4-Chlorophenyl)-1-cyclopropyl-5-(trifluoromethyl)-1H-pyrrol-2-yl]-(2,2-dimethyl-morpholin-4-yl)-methanone] was 75 to 95%; that for `CN(CC(C)(C)C)C(=O)c1c(-c2ccc(Cl)cc2)cc(C(F)(F)F)n1C1CC1` [Example 035, 3-(4-Chlorophenyl)-1-cyclopropyl-N-(2,2-dimethyl-propyl)-N-methyl-5-(trifluoromethyl)-1H-pyrrole-2-carboxylic acid amide] was 40 to 75%. The value for `CN(CC(C)(C)CO)C(=O)c1c(-c2ccc(Cl)cc2)cc(C(F)(F)F)n1C1CC1` [Example 036, 3-(4-Chlorophenyl)-1-cyclopropyl-N-(3-hydroxy-2,2-dimethyl-propyl)-N-methyl-5-(trifluoromethyl)-1H-pyrrole-2-carboxylic acid amide] was 75 to 95%. The value for `CN(CCS(C)(=O)=O)C(=O)c1c(-c2ccc(Cl)cc2)cc(C(F)(F)F)n1C1CC1` [Example 037, 3-(4-Chlorophenyl)-1-cyclopropyl-N-methyl-N-(2-methylsulfonyl-ethyl)-5-(trifluoromethyl)-1H-pyrrole-2-carboxylic acid amide] was 40 to 75%; that for `O=C(c1c(-c2ccc(Cl)cc2)cc(C(F)(F)F)n1C1CC1)N1CCOCC1` [Example 038, [3-(4-Chlorophenyl)-1-cyclopropyl-5-(trifluoromethyl)-1H-pyrrol-2-yl]-morpholin-4-yl-methanone] was 40 to 75%. Regarding `Cc1c(-c2ccc(Cl)cc2)c(C(=O)N(C)CC(C)(C)C)n(C2CC2)c1C(F)(F)F` [Example 039, 3-(4-Chlorophenyl)-1-cyclopropyl-N-(2,2-dimethyl-propyl)-N,4-dimethyl-5-(trifluoromethyl)-1H-pyrrole-2-carboxylic acid amide], the inhibition at 3 µM was 75 to 95%. The value for `Cc1c(-c2ccc(Cl)cc2)c(C(=O)N(C)CC(C)(C)CO)n(C2CC2)c1C(F)(F)F` [Example 040, 3-(4-Chlorophenyl)-1-cyclopropyl-N-(3-hydroxy-2,2-dimethyl-propyl)-N,4-dimethyl-5-(trifluoromethyl)-1H-pyrrole-2-carboxylic acid amide] was 75 to 95%; that for `Cc1c(-c2ccc(Cl)cc2)c(C(=O)N(C)CCS(C)(=O)=O)n(C2CC2)c1C(F)(F)F` [Example 041, 3-(4-Chlorophenyl)-1-cyclopropyl-N,4-dimethyl-N-(2-methylsulfonyl-ethyl)-5-(trifluoromethyl)-1H-pyrrole-2-carboxylic acid amide] was 75 to 95%. Regarding `Cc1c(-c2ccc(Cl)cc2)c(C(=O)N2CCOC(C)(C)C2)n(C2CCC2)c1C(F)(F)F` [Example 042, [3-(4-Chlorophenyl)-1-cyclobutyl-4-methyl-5-(trifluoromethyl)-1H-pyrrol-2-yl]-(2,2-dimethyl-morpholin-4-yl)-methanone], the inhibition at 3 µM fell in the range of 75 to 95%.

Regarding `Cc1c(-c2ccc(Cl)cc2)c(C(=O)N2CCOCC2)n(C2CC2)c1C(F)(F)F` [Example 043, [3-(4-Chlorophenyl)-1-cyclopropyl-4-methyl-5-(trifluoromethyl)-1H-pyrrol-2-yl]-morpholin-4-yl-methanone], the inhibition at 3 µM was in the range of 75 to 95%. As for `Cc1c(-c2ccc(Cl)cc2)c(C(=O)N2CCS(=O)(=O)C(C)(C)C2)n(C2CC2)c1C(F)(F)F` [Example 044, [3-(4-Chlorophenyl)-1-cyclopropyl-4-methyl-5-(trifluoromethyl)-1H-pyrrol-2-yl]-(2,2-dimethyl-1,1-dioxo-[1,4]thiazinan-4-yl)-methanone], the figure is 75 to 95%; as for `CC(C)Cn1c(C(F)(F)F)cc(-c2ccc(F)cc2)c1C(=O)N1CCOC(C)(C)C1` [Example 045, (2,2-Dimethyl-morpholin-4-yl)-[3-(4-fluorophenyl)-1-(2-methyl-propyl)-5-(trifluoromethyl)-1H-pyrrol-2-yl]-methanone], 75 to 95%. The value for `CC(C)Cn1c(C(F)(F)F)cc(-c2ccc(F)cc2)c1C(=O)N(C)C1CCOCC1` [Example 046, 3-(4-Fluorophenyl)-N-methyl-1-(2-methyl-propyl)-N-tetrahydro-pyran-4-yl-5-(trifluoromethyl)-1H-pyrrole-2-carboxylic acid amide] was greater than 95%; that for `Cc1cc(CN(C)C(=O)c2c(-c3ccc(F)cc3)cc(C(F)(F)F)n2CC(C)C)no1` [Example 047, 3-(4-Fluorophenyl)-N-methyl-N-[(5-methyl-isoxazol-3-yl)-methyl]-1-(2-methyl-propyl)-5-(trifluoromethyl)-1H-pyrrole-2-carboxylic acid amide] was greater than 95%. The value for `Cc1c(-c2ccc(Cl)cc2)c(C(=O)N(C)Cc2ccncn2)n(CC(C)C)c1C(F)(F)F` [Example 048, 3-(4-Chlorophenyl)-N,4-dimethyl-1-(2-methyl-propyl)-N-(pyrimidin-4-yl-methyl)-5-(trifluoromethyl)-1H-pyrrole-2-carboxylic acid amide] was greater than 95%.
